# Data published in patent US5489524A, “Chimeric protein that has a human Rho motif and deoxyribonuclease activity” (The United States of America as represented by the …, priority 1992, dated 1996).
# Test system: Mammalian Endo-Exonuclease
# Experiment: ss- and ds-DNase activities of the purified endo-exonuclease with divalent metal ions, NaCl, ATP or GTP (release of acid-soluble radioactivity from 32P-labeled pBR322 DNA)
# Assay type: biochemical, Monkey
# Settings: for Activity % ds-DNase / Activity % ss-DNase: 37° C.
# Method: The assay mixture contained 100 mM Tris-HCl pH 8.0, 10 mM MgCl2, and 17 μg of ^32 P-labelled linearized plasmid DNA. One unit of activity is defined as the amount of deoxyribonuclease which renders 1 μg of DNA acid-soluble in 30 min at 37° C. The plasmid was labeled using a random oligo-priming kit (Pharmacia Fine Chemical).
# The ratios are calculated with respect to the activity of 10 mM Mg^2+ (100%).
# The nuclease activities of putative recombination nucleases of E. coli are known to be affected by ATP. Moreover S. cerevisiae endo-exonuclease is believed to contain a region homologous to GTP-binding sites. The effects of ATP and GTP on the purified mammalian endo-exonuclease were therefore chosen to study.
# [1] = 0.1 mM nucleotide added, 10 mM Mg^2+
# [2] = 1.0 mM nucleotide added, 10 mM Mg^2+
# [3] = metal ion 0.5 mM, activity with 10 mM Mg^2+ = 100%
# [4] = metal ion 5.0 mM, activity with 10 mM Mg^2+ = 100%
# [5] = metal ion 10.0 mM, reference = 100%
# [6] = metal ion […], activity with 10 mM Mg^2+ = 100%
# [7] = metal ion 1.0 mM, activity with 10 mM Mg^2+ = 100%
# [8] = metal ion 0.1 mM, activity with 10 mM Mg^2+ = 100%
Ratio of Activities for ss/ds-DNase (metal ion 0.5 mM),Activity % ds-DNase [3] [%],Activity % ss-DNase [3] [%],Activity % ss-DNase [4] [%],Activity % ds-DNase [6] [%],Activity % ss-DNase [6] [%],ability to replace Mg^2+ as cofactor,concentration with inhibitory effects on the nuclease activities [mM],Activity % ss-DNase [7] [%],SMILES,other results
–,–,–,–,–,–,–,–,–,Nc1nc2c(ncn2[C@@H]2O[C@H](COP(=O)(O)OP(=O)(O)OP(=O)(O)O)[C@@H](O)[C@H]2O)c(=O)[nH]1 [GTP],effect on ds-DNase activity (0.1 mM): slight enhancement of ds-DNase activity; Activity % ds-DNase [1]: 112%; Activity % ss-DNase [1]: 85%; Activity % ds-DNase [2]: 73%; Activity % ss-DNase [2]: 68%; effect on ss-DNase and ds-DNase activities (0.1-1.0 mM): slightly inhibited
2.2,128,217,173,168,203,–,–,–,[Mg+2] [Mg^2+],optimal concentration for ds-DNase: 2.5 mM; optimal concentration for ss-DNase: 0.5 mM; Activity % ds-DNase [4]: 120%; Ratio of Activities for ss/ds-DNase (metal ion 10.0 mM): 1.3; Activity % ds-DNase [5]: 100%; Activity % ss-DNase [5]: 100%
1.7,195,258,0,0,0,partially substitute for Mg^2+,≥ 2.0,215,[Mn+2] [Mn^2+],"Ratio of Activities for ss/ds-DNase (metal ion 1.0 mM): 1.4; Activity % ds-DNase [7]: 212%; Activity % ss-DNase (metal ion 2.0 mM, activity with 10 mM Mg^2+ = 100%): 0%"
–,0,0,–,0,0,partially substitute for Mg^2+,≥ 0.25,0,[Zn+2] [Zn^2+],Activity % ds-DNase [8]: 70%; Activity % ss-DNase [8]: 75%
